Test results as given in ChEMBL document CHEMBL4177639, “Acacetin inhibits neuronal cell death induced by 6-hydroxydopamine in cellular Parkinson's disease model” (Bioorg Med Chem Lett, 2017).
The source made the active and inactive calls. The rule behind the calls is not given here.

Columns and labels:
SH-SY5Y [1] = experiment: Neuroprotective activity against 6-OHDA induced apoptosis in human SH-SY5Y cells assessed as reduction in cleaved caspase-3 level at 2.5 to 10 uM pretreated for 1 hr followed by 6-OHDA addition after 6 to 24 hrs by Western blot analysis; format: functional, cell-based
SH-SY5Y [2] = experiment: Neuroprotective activity against 6-OHDA induced toxicity in human SH-SY5Y cells assessed as reduction in cell viability pretreated for 30 mins followed by 6-OHDA addition after 24 hrs by MTT assay; format: functional, cell-based
SH-SY5Y [3] = experiment: Neuroprotective activity against 6-OHDA induced toxicity in human SH-SY5Y cells assessed as reduction in mitochondrial membrane potential loss at 1 to 10 uM pretreated for 1 hr followed by 6-OHDA addition after 1 to 6 hrs by rhodamine123 dye based fluorescence microscopic analysis; format: functional, cell-based
SH-SY5Y [4] = experiment: Neuroprotective activity against 6-OHDA induced apoptosis in human SH-SY5Y cells assessed as reduction in Bax expression pretreated for 1 hr followed by 6-OHDA addition after 6 to 24 hrs by Western blot analysis; format: functional, cell-based
[5] = target: Mitogen-activated protein kinase; ERK1/ERK2 (Homo sapiens) (UniProt P27361+P28482); experiment: Inhibition of 6-OHDA induced ERK1/2 phosphorylation in human SH-SY5Y cells at 2.5 to 10 uM pretreated for 1 hr followed by 6-OHDA addition after 1 hr by Western blot analysis; format: cell-based
SH-SY5Y [6] = experiment: Cytotoxicity against human SH-SY5Y cells assessed as reduction in LDH release at 0.5 to 10 uM after 24 hrs by spectrophotometric method; format: cell-based
[7] = target: c-Jun N-terminal kinase, JNK (Homo sapiens) (UniProt P45983+P53779+P45984); experiment: Inhibition of 6-OHDA induced JNK phosphorylation in human SH-SY5Y cells at 2.5 to 10 uM pretreated for 1 hr followed by 6-OHDA addition after 1 hr by Western blot analysis; format: cell-based
SH-SY5Y [8] = experiment: Neuroprotective activity against 6-OHDA induced apoptosis in human SH-SY5Y cells assessed as reduction in cytochrome-c level pretreated for 1 hr followed by 6-OHDA addition after 6 to 24 hrs by Western blot analysis; format: functional, cell-based
SH-SY5Y [9] = experiment: Neuroprotective activity against 6-OHDA induced toxicity in human SH-SY5Y cells assessed as reduction in LDH release pretreated for 30 mins followed by 6-OHDA addition after 24 hrs by spectrophotometric method; format: functional, cell-based
SH-SY5Y [10] = experiment: Neuroprotective activity against 6-OHDA induced toxicity in human SH-SY5Y cells assessed as reduction in nuclear necrosis at 2.5 to 10 uM pretreated for 1 hr followed by 6-OHDA addition after 24 hrs by Hoechst 33258/propidium iodide staining based fluorescence microscopic analysis; format: functional, cell-based
SH-SY5Y [11] = experiment: Neuroprotective activity against 6-OHDA induced toxicity in human SH-SY5Y cells assessed as reduction in cell shrinkage at 2.5 to 10 uM pretreated for 1 hr followed by 6-OHDA addition after 24 hrs by Hoechst 33258/propidium iodide staining based fluorescence microscopic analysis; format: functional
SH-SY5Y [12] = experiment: Neuroprotective activity against 6-OHDA induced apoptosis in human SH-SY5Y cells assessed as reduction in cleaved PARP level at 2.5 to 10 uM pretreated for 1 hr followed by 6-OHDA addition after 6 to 24 hrs by Western blot analysis; format: functional, cell-based
SH-SY5Y [13] = experiment: Neuroprotective activity against 6-OHDA induced toxicity in human SH-SY5Y cells assessed as reduction in nuclear condensation at 2.5 to 10 uM pretreated for 1 hr followed by 6-OHDA addition after 24 hrs by Hoechst 33258/propidium iodide staining based fluorescence microscopic analysis; format: functional, cell-based
SH-SY5Y [14] = experiment: Neuroprotective activity against 6-OHDA induced apoptosis in human SH-SY5Y cells assessed as increase in Bcl-2 expression pretreated for 1 hr followed by 6-OHDA addition after 6 to 24 hrs by Western blot analysis; format: functional, cell-based
SH-SY5Y [15] = experiment: Neuroprotective activity against 6-OHDA induced apoptosis in human SH-SY5Y cells assessed as reduction in cleaved caspase-9 level at 2.5 to 10 uM pretreated for 1 hr followed by 6-OHDA addition after 6 to 24 hrs by Western blot analysis; format: functional, cell-based
[16] = target: RAC-alpha serine/threonine-protein kinase (Homo sapiens) (UniProt P31749); experiment: Inhibition of 6-OHDA induced AKT phosphorylation in human SH-SY5Y cells at 2.5 to 10 uM pretreated for 1 hr followed by 6-OHDA addition after 1 hr by Western blot analysis; format: cell-based
[17] = target: Glycogen synthase kinase-3 beta (Homo sapiens) (UniProt P49841); experiment: Inhibition of 6-OHDA induced GSK3beta phosphorylation in human SH-SY5Y cells at 2.5 to 10 uM pretreated for 1 hr followed by 6-OHDA addition after 1 hr by Western blot analysis; format: cell-based
[18] = target: MAP kinase p38 (Homo sapiens) (UniProt O15264+Q15759+Q16539+P53778); conditions: SH-SY5Y, 2.5 to 10 uM
Description: Inhibition of 6-OHDA induced p38 phosphorylation in human SH-SY5Y cells at 2.5 to 10 uM pretreated for 1 hr followed by 6-OHDA addition after 1 hr by Western blot analysis

SH-SY5Y [19] = experiment: Neuroprotective activity against 6-OHDA induced toxicity in human SH-SY5Y cells assessed as reduction in intracellular ROS accumulation at 1 to 10 uM pretreated for 1 hr followed by 6-OHDA addition after 1 to 6 hrs by DCFH-DA dye based fluorescence spectrophotometric method; format: functional, cell-based
SH-SY5Y [20] = experiment: Cytotoxicity against human SH-SY5Y cells assessed as effect on cell viability at 0.5 to 10 uM after 24 hrs by MTT assay; format: cell-based
SH-SY5Y [21] = experiment: Neuroprotective activity against 6-OHDA induced toxicity in human SH-SY5Y cells assessed as reduction in nuclear fragmentation at 2.5 to 10 uM pretreated for 1 hr followed by 6-OHDA addition after 24 hrs by Hoechst 33258/propidium iodide staining based fluorescence microscopic analysis; format: functional, cell-based

Chain of Mitogen-activated protein kinase; ERK1/ERK2 (Homo sapiens) (P27361 whole entry, looked up): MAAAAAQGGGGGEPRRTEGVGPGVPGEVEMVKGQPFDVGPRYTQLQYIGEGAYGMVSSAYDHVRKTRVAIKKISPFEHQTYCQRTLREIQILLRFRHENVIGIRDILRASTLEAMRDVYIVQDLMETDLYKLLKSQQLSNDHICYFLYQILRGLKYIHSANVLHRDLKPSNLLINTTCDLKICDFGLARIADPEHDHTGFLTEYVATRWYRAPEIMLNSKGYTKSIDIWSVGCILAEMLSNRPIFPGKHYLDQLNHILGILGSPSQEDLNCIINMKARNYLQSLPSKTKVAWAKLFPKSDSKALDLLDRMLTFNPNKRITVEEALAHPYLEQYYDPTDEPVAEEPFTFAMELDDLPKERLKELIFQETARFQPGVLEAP
Chain of Mitogen-activated protein kinase; ERK1/ERK2 (Homo sapiens) (P28482 whole entry, looked up): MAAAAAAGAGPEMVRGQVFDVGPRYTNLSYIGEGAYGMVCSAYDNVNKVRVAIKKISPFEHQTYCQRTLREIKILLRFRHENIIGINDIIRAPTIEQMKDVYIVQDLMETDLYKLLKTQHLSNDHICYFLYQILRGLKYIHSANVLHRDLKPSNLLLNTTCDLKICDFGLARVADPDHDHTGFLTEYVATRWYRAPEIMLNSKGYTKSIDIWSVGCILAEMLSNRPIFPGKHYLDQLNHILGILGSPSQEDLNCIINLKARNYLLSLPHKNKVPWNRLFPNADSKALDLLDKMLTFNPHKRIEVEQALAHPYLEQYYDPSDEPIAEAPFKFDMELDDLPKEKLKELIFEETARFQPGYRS
Chain of RAC-alpha serine/threonine-protein kinase (Homo sapiens) (P31749 whole entry): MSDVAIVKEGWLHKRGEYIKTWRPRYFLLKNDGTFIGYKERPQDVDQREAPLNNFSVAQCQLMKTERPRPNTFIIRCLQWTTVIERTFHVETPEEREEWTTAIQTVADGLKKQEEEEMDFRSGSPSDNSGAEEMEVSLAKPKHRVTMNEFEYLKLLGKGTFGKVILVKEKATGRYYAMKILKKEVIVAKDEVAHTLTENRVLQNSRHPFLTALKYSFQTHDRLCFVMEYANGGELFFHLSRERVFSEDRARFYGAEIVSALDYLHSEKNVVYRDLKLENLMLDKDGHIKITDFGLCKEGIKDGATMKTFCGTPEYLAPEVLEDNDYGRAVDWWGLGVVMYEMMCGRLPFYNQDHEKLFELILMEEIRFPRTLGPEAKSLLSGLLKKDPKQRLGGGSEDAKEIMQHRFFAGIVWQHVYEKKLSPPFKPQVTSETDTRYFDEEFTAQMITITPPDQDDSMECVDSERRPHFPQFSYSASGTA
Chain of Glycogen synthase kinase-3 beta (Homo sapiens) (P49841 whole entry, looked up): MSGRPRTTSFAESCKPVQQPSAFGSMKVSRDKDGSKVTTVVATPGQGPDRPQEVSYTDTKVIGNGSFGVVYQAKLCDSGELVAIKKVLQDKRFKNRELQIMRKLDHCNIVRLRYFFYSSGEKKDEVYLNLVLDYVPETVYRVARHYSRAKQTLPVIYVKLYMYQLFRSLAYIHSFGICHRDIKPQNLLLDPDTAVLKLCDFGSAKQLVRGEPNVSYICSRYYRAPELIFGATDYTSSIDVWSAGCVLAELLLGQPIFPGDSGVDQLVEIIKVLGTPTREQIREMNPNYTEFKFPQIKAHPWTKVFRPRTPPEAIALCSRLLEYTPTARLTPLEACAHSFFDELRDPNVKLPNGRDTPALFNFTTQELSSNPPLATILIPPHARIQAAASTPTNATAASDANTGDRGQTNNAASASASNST

- inhibition [5]: inactive
- inhibition [7]: Active
- inhibition [16]: Active
- inhibition [17]: Active
- inhibition [18]: Active
SMILES: COc1ccc(-c2cc(=O)c3c(O)cc(O)cc3o2)cc1 [ACACETIN]
- Activity (SH-SY5Y [1]): Active
- Activity (SH-SY5Y [2]): Dose-dependent effect
- Activity (SH-SY5Y [3]): Active
- Activity (SH-SY5Y [4]): Dose-dependent effect
- Activity (SH-SY5Y [6]): Non-Toxic
- Activity (SH-SY5Y [8]): Dose-dependent effect
- Activity (SH-SY5Y [9]): Dose-dependent effect
- Activity (SH-SY5Y [10]): Active
- Activity (SH-SY5Y [11]): Active
- Activity (SH-SY5Y [12]): Active
- Activity (SH-SY5Y [13]): Active
- Activity (SH-SY5Y [14]): Dose-dependent effect
- Activity (SH-SY5Y [15]): Active
- Activity (SH-SY5Y [19]): Active
- Activity (SH-SY5Y [20]): Non-Toxic
- Activity (SH-SY5Y [21]): Active
